The conditions of data set [1]: Crystal; DTA.
A short description of data set [2]: Molar enthalpy of transition or fusion. The settings on record: Crystal; DSC.

± gives the expanded uncertainty stated by the source.

The results in this text go back to the NIST ThermoML archive (doi:10.1021/je800628a).

For `c1ccc2ccccc2c1` [naphthalene], the Normal melting temperature in data set [1] stood at 83.0 ± 1.1 °C. In addition, the “Molar enthalpy of transition or fusion” value in data set [2] was 4.26 ± 0.131 kcal/mol.
